According to patent US5168102A, “Endocrine manipulation to improve body composition of poultry” (priority 1990, dated 1992):

Assays:
[1] = Example 1: growth and feed efficiency of broiler cockerels fed thyroid-active substances with or without daily ncGH injection; type: in vivo, broiler cockerels (Ross X Arbor Acre strain); settings: for BW (body weight): 1 ppm T3, 1 ppm T4, 5 ppm TRH or 0.5% PTU in feed, 3 to 6 weeks of age, Group 1, mean ±SEM; for ADFC (average daily feed consumption) / ADG (average daily weight gain) / FTG (feed-to-gain ratio): 21 days
Text: (§1) The purpose of this study was to determine the effect manipulating blood levels of thyroid hormones and/or growth hormone on growth performance and body composition of broiler chickens. […] Purified natural chicken growth hormone (ncGH) was obtained from the Research and Education Center, Harbor-UCLA Medical Center, Torrance, Calif. […] The premix (200 g) was then used to prepare 50 kg batches of each experimental diet according to the formula for broiler-finisher ration described in Table 1. The diet containing 0.5% PTU was prepared by mixing 250 g of PTU into 49.75 kg of the basal ration (Table 1).
(§2) Broiler cockerels (Ross X Arbor Acre strain) were raised to 3 weeks-of-age in a battery-brooder and then transferred to wire grow-out cages (4 birds/pen) held in two controlled-environment rooms (10 pens/room). Beginning at 3 weeks of age, eight birds (2 pens of 4 birds) were randomly assigned to each of 10 treatments. The chickens were provided the experimental diets and water ad libitum. […] For injection, the ncGH was reconstituted in sterile 0.025M sodium bicarbonate buffer (pH 9.8). The 10 treatments were administered for 21 days (i.e., from 3 to 6 weeks of age).
(§3) Measurement of body weight and feed consumption at weekly intervals allowed calculation of the average daily gain (ADG, g/bird/day), average daily feed consumption (ADFC, g/bird/day) and the feed-to-gain ratio (FIG, kg feed/kg gain) over the 21 day experimental period. Blood samples were taken each week (4, 5, and 6 weeks) just before (pre-injection) and 4 hours post-injection of ncGH. […] At the conclusion of the study, birds were killed and the carcasses frozen for proximate analysis. The frozen carcasses were ground in a meat grinder and aliquots of each ground carcass taken for determination of moisture, protein, fat and ash by established analytical procedures (Official Method of Analysis, Edition 13, W. Horwitz ed., Association of Official Analytical Chemist, Washington, D.C., 1980). Body composition data are presented as a percent of live weight at 6 weeks-of-age. Least squares regression analysis was used to test for significant differences (P<0.05) due treatment.

[2] = Example 1: body composition (proximate analysis of carcass); type: in vivo, broiler cockerels (Ross X Arbor Acre strain); settings: for Body composition: Ash / Body composition: Fat / Body composition: Protein / Body composition: Water: Group 1, dietary, 6 weeks-of-age, N = 8
Text: as §1, §2, §3

[3] = at the doses tested
Text: Referring now to broiler chickens as a benchmark for the beneficial effects of this invention, it must be noted that these chickens grow from a weight of 30 to 50 grams at hatching to about 1.5-3 or even as much as 5 kilograms of body weight at market age. Of this market weight, 15-20 wt.-% is protein, 2-3 wt.-% is inorganic (showing up as ash in proximate analysis of body composition), and more than 10 wt.-% (e.g. 10-20 wt.-%) is fat, which means that the protein:fat ratio (by weight) is likely to be at or below 1.5:1 and certainly well below 2:1.

[4] = hypothyroid state; cited from earlier work
[5] = Example 1: plasma hormone concentrations (radioimmunoassays); settings: for average plasma T3 level: Group 1; for I/G Molar Ratio / plasma Glucagon (G) / plasma Insulin (I): Group 1, dietary, N = 24
Text: as §1, §2, §3

[6] = supplemented diets; cited from earlier work
receptor = settings: cited from earlier work
[7] = i.v., 21 days, cited from earlier work

Structure (SMILES) | BW (body weight) [1] | ADFC (average daily feed consumption) ([1]; Group 1, dietary) [g/bird/day] | ADG (average daily weight gain) ([1]; Group 1, dietary) [g/bird/day] | FTG (feed-to-gain ratio) ([1]; Group 1, dietary) | Body composition: Ash [2] | Body composition: Fat [2] | Body composition: Protein [2] | Body composition: Water [2] | body fat content, increase ([2]; vs CF group) [%] | effect on protein:fat ratio [3] | average plasma T3 level [5] [ng/mL] | I/G Molar Ratio [5] | plasma Glucagon (G) [5] [pg/mL] | plasma Insulin (I) [5] [pg/mL] | metabolic activity of thyroid hormones (receptor) | also measured
CCCc1cc(=O)[nH]c(=S)[nH]1 [PTU, 6-N-propyl-2-thiouracil] | 1.42 ± .05 kg | 92.3 ± 7.9 | 39.2 ± 4.0 | 2.36 ± .04 kg feed/kg gain | 2.17 ± .06 % BW | 18.2 ± .80 % BW | 17.2 ± .20 % BW | 61.9 ± .73 % BW | 50 | seemed to decrease the protein:fat ratio | 1.5 | 6.35 | 225 | 2349 | – | effect on growth rate and feed efficiency ([1]; Group 1, dietary): depressed growth rate and reduced feed conversion; final body weight, reduction ([1]; vs birds fed CF or thyroid hormones (P<0.05)): 18%; effect on body protein, water and ash ([2]; vs CF group): at the expense of body ash, protein and water; body fat [4]: increased accumulation of body fat; plasma insulin levels [4]: elevated plasma insulin levels; average plasma T3 level, reduction ([5]; vs CF birds (P<0.05)): 53%; plasma I/G molar ratio, fold greater ([5]; vs CF group (P<0.05)): 2.9 times; plasma GH level, fold higher ([5]; vs CF treatment): 1.9 times; plasma T4 level, reduction ([5]; vs average of CF and TRH treatments (P<0.05)): 76%
N[C@@H](Cc1cc(I)c(Oc2cc(I)c(O)c(I)c2)c(I)c1)C(=O)O [T4, 3-[4-(4-hydroxy-3,5-diiodophenoxy)-3,5-diiodophenyl]-L-alanine] | 1.76 ± .04 kg | 108.4 ± 3.6 | 51.9 ± 3.3 | – | 2.35 ± .03 % BW | 12.9 ± .41 % BW | 18.2 ± .31 % BW | 65.8 ± .29 % BW | – | – | 3 | – | 318 | 776 | without significant metabolic activity | depressed growth rate in dwarf strains [6]: restored to normal
NC(=O)[C@@H]1CCCN1C(=O)[C@H](Cc1c[nH]cn1)NC(=O)[C@@H]1CCC(=O)N1 [TRH, L-pyroglutamyl-L-histidyl-L-prolinamide] | 1.85 ± .08 kg | 125.2 ± 5.5 | 56.5 ± 0.2 | 2.21 ± 0.1 kg feed/kg gain | 2.34 ± .06 % BW | 13.6 ± .88 % BW | 18.1 ± .21 % BW | 65.5 ± .73 % BW | 12 | seemed to decrease the protein:fat ratio | 3 | 1.68 | 295 | 814 | – | plasma GH levels [7]: elevated plasma GH levels; growth rate and feed efficiency ([7]; TRH 1 or 10 μg/kg/day, GRF 10 μg/kg/day, alone or in combination): failed to stimulate growth rate or improve feed efficiency; ADFC rate, increase ([1]; vs CF group, not significant): 11%; ADG, increase ([1]; vs CF group, not significant): 9%; body weight (BW), increase ([1]; vs CF group, not significant): 6%
O=C(O)Cc1cc(I)c(Oc2cc(I)c(O)c(I)c2)c(I)c1 [Tetrac] | – | – | – | – | – | – | – | – | – | – | – | – | – | – | most active compounds of formula I | –
